Measurements taken from paper PMC7312527 (International Journal of Molecular Sciences, 2020).
Values joined by “and” are separate entries in the source; they are usually repeats but may differ in a detail not shown here. Identical values can stand only once.

Key:
AChE from electric eel = AChE from electric eel (Electrophorus electricus, UniProt O42275); test: biochemical; conditions: for Selectivity for AChE: IC50 (BuChE)/IC50(AChE); for IC50: means ± SD of three independent experiments, read-out: EeAChE IC50 ± SD
BuChE from equine serum = BuChE from equine serum (Equus caballus, UniProt P81908); test: biochemical; conditions: for Selectivity for BuChE: IC50(AChE)/IC50(BuChE); for IC50: means ± SD of three independent experiments, read-out: EqBuChE IC50 ± SD
[1] = Experimental Properties; cited from earlier work
in vitro = type: cell-based; conditions: human
Experimental: (§1) Human hepatic stellate cells (HSCs, Sciencell) were cultured in the Stellate Cell Medium (Sciencell) with 1% Stellate Cell Growth Supplement, 2% fetal bovine serum (FBS), and 1% penicillin/streptomycin solution (Sciencell). Cells were kept in the incubator (37 °C, 5% CO2). At the beginning of the experiment, cells were seeded in the 96-well plates at a density of 5 × 10^3 cells per well and incubated in the incubator for 24 h. After the incubation period, medium was removed and HSCs were exposed to 100 µL of the compound solutions over a range of concentrations (10–0.1 µM) or nothing but culture medium (blank control). Cells were further incubated for 24 h. At the end, medium was removed, cells were washed with PBS, and 50 µL of the MTT solution (0.75 mg/mL) was added to the cells. Plates were kept in the dark for 2 h at 37 °C. Finally, the MTT solution was removed and 100 µL of DMSO was added to each well. Plates with DMSO were kept at room temperature for 10 min. After this time, 5 µL of Sorensen Buffer was added to each well. Plates were swayed and the absorbance was measured at a wavelength of 570 nm by a microplate reader (Synergy H1, BioTek). The cell viability was expressed as a percentage of the control values (blank control).

[2] = test system: Human hepatic stellate cells (HSCs); test: in vitro; type: cell-based; conditions: HSCs, 24 h
Experimental: as §1

[3] = Experimental Properties; cited from earlier work; remark: listed apart in the source
SH-SY5Y cells [4] = test: Neuroprotection against oxidative stress induced by H2O2 (MTT); type: cell-based, human; conditions: H2O2 100 µM
SH-SY5Y cells [5] = test: Neuroprotection against rotenone/oligomycin A, pre-incubation (MTT); type: cell-based, human; conditions: R/O mixture, 0.001 µM
SH-SY5Y cells [6] = test: Neuroprotection against rotenone/oligomycin A, co-incubation (MTT); type: cell-based, human; conditions: R/O mixture
hyaluronidase = target: T1, hyaluronidase (Bos taurus, UniProt Q2YDK3); test: Hyaluronidase (HYAL) inhibition test (turbidimetry); type: biochemical
T1 sequence (Q2YDK3 36-553): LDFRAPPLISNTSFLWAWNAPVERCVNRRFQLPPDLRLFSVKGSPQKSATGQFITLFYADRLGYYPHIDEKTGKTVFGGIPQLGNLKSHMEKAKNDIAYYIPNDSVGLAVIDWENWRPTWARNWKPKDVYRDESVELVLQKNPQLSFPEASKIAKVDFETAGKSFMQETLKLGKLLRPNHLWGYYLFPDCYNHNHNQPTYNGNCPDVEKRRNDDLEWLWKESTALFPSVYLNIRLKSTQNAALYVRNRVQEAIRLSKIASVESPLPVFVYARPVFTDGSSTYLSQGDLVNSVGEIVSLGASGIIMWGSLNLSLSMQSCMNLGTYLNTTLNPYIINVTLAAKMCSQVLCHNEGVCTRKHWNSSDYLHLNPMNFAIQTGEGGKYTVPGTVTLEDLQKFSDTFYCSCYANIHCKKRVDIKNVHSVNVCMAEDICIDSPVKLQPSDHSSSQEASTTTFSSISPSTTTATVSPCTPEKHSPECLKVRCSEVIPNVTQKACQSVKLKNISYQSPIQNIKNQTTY
Experimental: The hyaluronidase inhibition assay was set by turbidimetry according to USP XXII-NF XVII, modified by Piwowarski, to the 96-wells plates test. Tested compound solutions were freshly prepared before the assay. The protocol started with the addition of 20 µL of the tested compound in monosodium phosphate buffer and 40 µL of hyaluronidase solution (22.5 U/mL, Sigma Aldrich) to each well. The plate was kept in the dark (10 min, 37 °C). In the next step, 40 µL of hyaluronic acid solution (0.03%, Sigma Aldrich) in monosodium phosphate buffer was added to the wells and the plate was incubated again (45 min, 37 °C). Finally, 300 µL of bovine serum albumin (0.1%, Serva) in sodium acetate buffer was added to the wells and the mixture was kept at room temperature for 10 min. The assay was carried out in triplicate. Changes in turbidity were measured by a microplate reader (BioTek, Winooski, VT, USA) at 600 nm. Heparin (WZF, Polfa, Warszawa, Poland) was the positive control. The inhibitory activity of the tested compound was calculated from the Equation (1):(1) % inhibition=100x1−AHA−AAN/AHA−AHYAL where AHA is the absorbance of solution without the enzyme (positive control), AHYAL is the absorbance of solution without the tested compound (negative control), and AAN is the absorbance of solution with the tested compound.

Sequence of BuChE from equine serum (P81908 whole entry): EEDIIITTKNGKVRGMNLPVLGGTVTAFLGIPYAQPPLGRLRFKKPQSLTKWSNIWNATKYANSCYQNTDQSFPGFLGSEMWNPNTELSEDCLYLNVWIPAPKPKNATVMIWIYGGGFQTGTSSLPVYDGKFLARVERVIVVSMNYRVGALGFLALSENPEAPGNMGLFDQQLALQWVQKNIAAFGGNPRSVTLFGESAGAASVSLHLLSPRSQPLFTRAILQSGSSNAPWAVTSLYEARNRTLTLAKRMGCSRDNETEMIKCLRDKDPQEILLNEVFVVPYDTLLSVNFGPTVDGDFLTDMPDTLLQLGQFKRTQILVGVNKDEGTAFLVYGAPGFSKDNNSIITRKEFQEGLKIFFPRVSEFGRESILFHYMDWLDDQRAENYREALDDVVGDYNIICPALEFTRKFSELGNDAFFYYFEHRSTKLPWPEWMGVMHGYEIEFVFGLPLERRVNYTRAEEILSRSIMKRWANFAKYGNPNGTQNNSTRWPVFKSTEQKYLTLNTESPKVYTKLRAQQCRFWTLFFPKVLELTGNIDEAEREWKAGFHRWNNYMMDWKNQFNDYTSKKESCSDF
Sequence of AChE from electric eel (O42275 24-633): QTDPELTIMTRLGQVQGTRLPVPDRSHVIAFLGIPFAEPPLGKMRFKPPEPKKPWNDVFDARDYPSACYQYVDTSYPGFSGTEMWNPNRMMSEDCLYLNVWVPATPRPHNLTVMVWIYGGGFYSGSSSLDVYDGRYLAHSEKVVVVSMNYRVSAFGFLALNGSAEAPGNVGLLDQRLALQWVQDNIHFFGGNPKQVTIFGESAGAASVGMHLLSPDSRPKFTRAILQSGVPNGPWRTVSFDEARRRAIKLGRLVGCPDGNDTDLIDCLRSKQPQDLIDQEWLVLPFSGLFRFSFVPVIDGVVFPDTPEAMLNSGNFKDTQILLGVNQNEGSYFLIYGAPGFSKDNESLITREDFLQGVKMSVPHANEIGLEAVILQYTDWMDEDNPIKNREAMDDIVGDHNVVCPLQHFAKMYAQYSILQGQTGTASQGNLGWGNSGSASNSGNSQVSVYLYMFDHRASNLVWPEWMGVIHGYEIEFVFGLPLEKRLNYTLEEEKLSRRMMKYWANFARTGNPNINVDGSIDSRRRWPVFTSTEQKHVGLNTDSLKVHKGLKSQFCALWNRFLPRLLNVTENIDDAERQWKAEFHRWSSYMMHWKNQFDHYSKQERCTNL

| Molecule | Selectivity for AChE (AChE from electric eel) | IC50 (AChE from electric eel) | Selectivity for BuChE (BuChE from equine serum) | IC50 (BuChE from equine serum) [nM] | further results |
| --- | --- | --- | --- | --- | --- |
| Cl.O=C(NCCNc1c2c(nc3ccccc13)CCCC2)c1cc(Cl)cc(Cl)c1 [Compound 3a] | 0.203 | 690 ± 108 nM | 4.935 | 140 ± 12 |  |
| O=C(NCCCNc1c2c(nc3ccccc13)CCCC2)c1cc(Cl)cc(Cl)c1 [Compound 3b] | 0.174 | 139 ± 5 nM | 5.756 | 24 ± 1 |  |
| O=C(NCCCCCNc1c2c(nc3ccccc13)CCCC2)c1cc(Cl)cc(Cl)c1 [Compound 3d] |  | > 12000 nM and 12400 nM |  | > 20000 |  |
| O=C(NCCCCCCNc1c2c(nc3ccccc13)CCCC2)c1cc(Cl)cc(Cl)c1 [Compound 3e] |  | > 20000 nM |  | > 20000 |  |
| O=C(NCCCCCCCNc1c2c(nc3ccccc13)CCCC2)c1cc(Cl)cc(Cl)c1 [Compound 3f] | 0.289 | 115 ± 12 nM | 3.457 | 33 ± 6 |  |
| O=C(NCCCCCCCCNc1c2c(nc3ccccc13)CCCC2)c1cc(Cl)cc(Cl)c1 [Compound 3g] | 0.634 | 958 ± 36 nM | 1.577 | 607 ± 20 |  |
| O=C(NCCCCCCCCCNc1c2c(nc3ccccc13)CCCC2)c1cc(Cl)cc(Cl)c1 [Compound 3h] | 2.914 | 111 ± 4 nM | 0.343 | 324 ± 47 |  |
| CC(CN1c2ccccc2Sc2ccccc21)N(C)C.Cl (centres unmarked) [Prometazine HCl] |  |  |  |  | pKa [1]: 9.1 [52] |
| Nc1c2c(nc3ccccc13)CCCC2 [Tacrine, reference compound] |  |  |  |  | viability at 24 h, 10 µM (in vitro): 90.3%; hepatotoxicity (MTT; cell viability as percentage of control) ([2]; 0.1 µM): 100.67% ± 1.03%; hepatotoxicity (MTT; cell viability as percentage of control) ([2]; 1 µM): 99.48% ± 0.74% |
| CSc1ccc2c(c1)N(CCC1CCCCN1C)c1ccccc1S2.Cl (centres unmarked) [Thiorydazine HCl] |  |  |  |  | logP [3]: 5.9; pKa [1]: 9.5 [54] |
| Cc1c(C)c2c(c(C)c1O)CCC(C)(C(=O)O)O2 (centres unmarked) [Trolox, reference compound] |  |  |  |  | neuroprotection (SH-SY5Y cells [4]; compound 0.01 µM): 77.16%; neuroprotection (SH-SY5Y cells [4]; compound 0.1 µM): 91.22%; neuroprotection (SH-SY5Y cells [4]; compound 1 µM): 96.03%; neuroprotection (SH-SY5Y cells [4]; compound 10 µM): 95.05%; neuroprotection (SH-SY5Y cells [5]): 2.15%; neuroprotection (SH-SY5Y cells [6]; 0.001 µM): 5.60%; neuroprotection (SH-SY5Y cells [6]; 0.01 µM): 4.67% |
| Heparin [positive control] |  |  |  |  | IC50 (hyaluronidase): 56400 ± 780 nM |
